Literature values, collected in patent US20110082200A1, “5,6,7-TRIHYDROXYHEPTANOIC ACID AND ANALOGS FOR THE TREATMENT OF OCULAR DISEASES AND DISEASES ASSOCIATED WITH HYPERPROLIFERATIVE AND ANGIOGENIC RESPONSES” (ALCON, INC., priority 2004, published 2011).

Legend:
neutrophils = settings: compared with lipoxin A4
endothelial cell [1] = settings: in vitro
endothelial cell [2] = settings: in vitro; remark: listed apart in the source
[3] = tested on: VEGF-induced angiogenesis; settings: murine chronic granulomatous air pouch model

## CCCCC[C@H](O)[C@H](O)CO [Compound 2]
neutrophils
  inhibition of LTB4-induced chemotaxis of neutrophils: as potently as lipoxin A4

## COC(=O)CCC[C@H](O)[C@H](O)CO [Compound 1]
neutrophils
  inhibition of LTB4-induced chemotaxis of neutrophils: as potently as lipoxin A4

## O=C(O)CCC[C@H](O)[C@H](O)/C=C/C=C/C=C\C=C\[C@H](O)COc1ccc(F)cc1 [Lipoxin analog 3]
Endothelial cell [1]
  inhibition of VEGF-induced endothelial cell chemotaxis and proliferation: inhibit
Endothelial cell [2]
  inhibition of leukotriene D4-induced endothelial cell chemotaxis and proliferation: inhibit
[3]
  inhibition of VEGF-induced angiogenesis: inhibit
